Test results published in patent US20220351806A1, “Biomarker Panels for Guiding Dysregulated Host Response Therapy” (Endpoint Health Inc., priority 2019, published 2022).

System: sepsis patients
Assay: VANISH trial survival analysis, hydrocortisone vs placebo, by patient subtype classifier
Type: in vivo, human
Design: mortality reduction in the placebo group in comparison to the hydrocortisone group / Mortality rate: concentration or dose not given beside the values
Details: for Alive / Dead / Mortality rate / Survival rate / Mortality Reduction Group: VANISH trial; for Alive / Dead / Mortality rate / Survival rate: Hydro group; for 28-day mortality reduction in the placebo group in comparison to the hydrocortisone group: VANISH; for Mortality Reduction Group: arm with lower mortality, Hydro vs Placebo
Excerpt: The test expression data from each trial were normalized by the platform normalization matrix described above^13 so that the test data were more consistent with the training data. The classifiers (e.g., the Full Model, the SS Model, the S Model, and the P Model) were then applied to the normalized data such that the patients were classified into A, B, and C subtypes. […] Therefore, each sample in the target samples was normalized independently with the normalization matrix of the sample array platform.
Survival and mortality rates were calculated at day 28 because survival and mortality labels at other time points were not available. […] Binomial and Chi-squared with continuity correction tests were used to test for the significance of these differences.
In one example, previously identified subtypes of sepsis patients were used to tune the model to identify these type A and B patients. Two distinct sepsis response signatures (SRS1 and SRS2) were identified in five public studies (E-MTAB-4421, E-MTAB-4451, E-MTAB-5273, E-MTAB-5274, and E-MTAB-7581), where HumanHT-12 v4 BeadChip were used to generate the gene expression profiles of the patient samples. The processed data of those five studies were downloaded and processed using R programming language and software environment for statistical analysis (version 3.6.3). The Bioconductor annotation package, illuminaHumanv4.db (version 1.26.0), was used to annotate microarray probes and expression levels of genes were determined by each individual probe or mean of probes belonging to the same gene. In order to remove cohort biases, the Bioconductor package, limma (version 3.42.2), was used to remove batch effects. Using ss.b2 panel genes, subtype A, B, and C scores were calculated by geometric mean of up/down genes.
To build the classifier, we defined E-MTAB-4421, E-MTAB-4451, E-MTAB-5273, and E-MTAB-5274 as the training dataset and VANISH (E-MTAB-7581) as the testing dataset. We used features (subtype A, B, and C scores) and class labels (SRS1 vs SRS2) in the training dataset to build a machine-learned classifier based on support-vector machine (SVM) method. SVM is a supervised machine learning method for classification analysis. The algorithm finds a single or a set of hyperplanes that maximize the margin among subtype A, B, and C scores. In order to capture non-linear data, the kernel function was used. R package e1071 was used to build the SVM classifier with following parameters: method=“C-classification”, kernal=“radial”, gamma=0.1, and cost=10.
The accuracy of the classifiers was evaluated by Leave-One-Out (LOO) cross-validation over the training dataset. Also the classifier was applied to 117 controlled samples from VANISH trial.
In addition to the SVM-method, thresholds can be employed to scores in order to define A vs. B labels. […] Therefore we applied a heuristic threshold (threshold=0) to subtype A and B scores to classify SRS1-like and SRS2-like in VANISH: SRS2-like label was assigned to samples with subtype A score >0 and subtype B score <0 and SRS1-like label was assigned to the rest of samples.
Besides the heuristic threshold, we also derived the thresholds for subtype A and B scores using the training dataset. Same as the SVM method, we defined E-MTAB-4421, E-MTAB-4451, E-MTAB-5273, and E-MTAB-5274 as the training dataset and VANISH (E-MTAB-7581) as the testing dataset.

[1] = day 28, Full Model, subtypes CA
[2] = day 28, SS.B2 Model (SVM), Total
[3] = day 28, SS.B2 Model (SVM), type A (SRS2-like)
[4] = day 28, SS.B2 Model (SVM), type B (SRS1-like)

C[C@]12CCC(=O)C=C1CC[C@@H]1[C@@H]2[C@@H](O)C[C@@]2(C)[C@H]1CC[C@]2(O)C(=O)CO [Hydro, hydrocortisone]
Alive (day 28, Full Model, subtype C): 11
Dead (day 28, Full Model, subtype C): 8
Mortality rate (day 28, Full Model, subtype C): 42.1%
Survival rate (day 28, Full Model, subtype C): 57.9%
Alive [1]: 20
Dead [1]: 16
Mortality rate [1]: 44.4%
Survival rate [1]: 55.6%
Alive (day 28, P Model, Total): 36
Dead (day 28, P Model, Total): 22
Mortality rate (day 28, P Model, Total): 37.9%
Survival rate (day 28, P Model, Total): 62.1%
Alive (day 28, P Model, subtype A): 9
Dead (day 28, P Model, subtype A): 10
Mortality rate (day 28, P Model, subtype A): 52.6%
Survival rate (day 28, P Model, subtype A): 47.4%
Alive (day 28, P Model, subtype B): 23
Dead (day 28, P Model, subtype B): 8
Mortality rate (day 28, P Model, subtype B): 25.8%
Survival rate (day 28, P Model, subtype B): 74.2%
Alive (day 28, P Model, subtype C): 4
Dead (day 28, P Model, subtype C): 4
Mortality rate (day 28, P Model, subtype C): 50.0%
Survival rate (day 28, P Model, subtype C): 50.0%
Alive (day 28, P Model, subtypes CA): 13
Dead (day 28, P Model, subtypes CA): 14
Mortality rate (day 28, P Model, subtypes CA): 51.9%
Survival rate (day 28, P Model, subtypes CA): 48.1%
Alive (day 28, S Model, Total): 20
Dead (day 28, S Model, Total): 13
Mortality rate (day 28, S Model, Total): 39.4%
Survival rate (day 28, S Model, Total): 60.6%
Alive (day 28, S Model, subtype A): 16
Dead (day 28, S Model, subtype A): 9
Mortality rate (day 28, S Model, subtype A): 36.0%
Survival rate (day 28, S Model, subtype A): 64.0%
Alive (day 28, S Model, subtype B): 12
Dead (day 28, S Model, subtype B): 9
Mortality rate (day 28, S Model, subtype B): 42.9%
Survival rate (day 28, S Model, subtype B): 57.1%
Alive (day 28, S Model, subtype C): 8
Dead (day 28, S Model, subtype C): 4
Survival rate (day 28, S Model, subtype C): 66.7%
Alive (day 28, S Model, subtypes CA): 8
Dead (day 28, S Model, subtypes CA): 4
Survival rate (day 28, S Model, subtypes CA): 66.7%
Alive (day 28, SS Model, Total): 36
Dead (day 28, SS Model, Total): 22
Mortality rate (day 28, SS Model, Total): 37.9%
Survival rate (day 28, SS Model, Total): 62.1%
Alive (day 28, SS Model, subtype A): 15
Dead (day 28, SS Model, subtype A): 9
Mortality rate (day 28, SS Model, subtype A): 37.5%
Survival rate (day 28, SS Model, subtype A): 62.5%
Alive (day 28, SS Model, subtype B): 5
Dead (day 28, SS Model, subtype B): 5
Mortality rate (day 28, SS Model, subtype B): 50.0%
Survival rate (day 28, SS Model, subtype B): 50.0%
Alive (day 28, SS Model, subtype C): 16
Dead (day 28, SS Model, subtype C): 8
Survival rate (day 28, SS Model, subtype C): 66.7%
Alive (day 28, SS Model, subtypes CA): 31
Dead (day 28, SS Model, subtypes CA): 17
Survival rate (day 28, SS Model, subtypes CA): 64.6%
Alive [2]: 36
Dead [2]: 22
Mortality rate [2]: 37.9%
Survival rate [2]: 62.1%
Alive [3]: 22
Dead [3]: 14
Mortality rate [3]: 38.9%
Survival rate [3]: 61.1%
Alive [4]: 14
Dead [4]: 8
Mortality rate [4]: 36.4%
Survival rate [4]: 63.6%
28-day mortality reduction in the placebo group in comparison to the hydrocortisone group (SRS2-like patients by ROC-derived thresholds (A threshold=-0.2664, B threshold=0.3179)): 81.7%
28-day mortality reduction in the placebo group in comparison to the hydrocortisone group (SRS2-like patients by heuristic threshold=0 (A score >0, B score <0)): 85.2%
Mortality Reduction Group (day 28, Full Model, Total): Placebo
Mortality Reduction Group (day 28, Full Model, subtype A): Placebo
Mortality Reduction Group (day 28, Full Model, subtype B): Hydro
Mortality Reduction Group (day 28, Full Model, subtype C): Placebo
Mortality Reduction Group [1]: Placebo
Mortality Reduction Group (day 28, P Model, Total): Placebo
Mortality Reduction Group (day 28, P Model, subtype A): Placebo
Mortality Reduction Group (day 28, P Model, subtype B): Hydro
Mortality Reduction Group (day 28, P Model, subtype C): Placebo
Mortality Reduction Group (day 28, P Model, subtypes CA): Placebo
Mortality Reduction Group (day 28, SS Model, Total): Placebo
Mortality Reduction Group (day 28, SS Model, subtype A): Placebo
Mortality Reduction Group (day 28, SS Model, subtype B): Placebo
Mortality Reduction Group (day 28, SS Model, subtype C): Placebo
Mortality Reduction Group (day 28, SS Model, subtypes CA): Placebo
Mortality Reduction Group [2]: Placebo
Mortality Reduction Group [3]: Placebo
Mortality Reduction Group [4]: Hydro
lower mortality in the placebo group when compared to the hydrocortisone therapy group (sepsis patients, 28-day, subtype A, Full Model): 64.6%
lower mortality in the placebo group when compared to the hydrocortisone therapy group (sepsis patients, 28-day, subtype A, P Model): 77.6%
lower mortality in the placebo group when compared to the hydrocortisone therapy group (sepsis patients, 28-day, subtype A, S Model): 86.1%
lower mortality in the placebo group when compared to the hydrocortisone therapy group (sepsis patients, 28-day, subtype A, SS Model): 86.0%
lower mortality in the hydrocortisone group when compared to the placebo group (sepsis patients, 28-day, subtype B, Full Model): 35.2%
lower mortality in the placebo group when compared to the hydrocortisone therapy group (sepsis patients, 28-day, subtype C, Full Model): 56.8%
